Assay [1] addresses T1, mTORC1 (Homo sapiens, UniProt P42345+P62942).
T1 construct: endogenous in cells; host or cells: PC3 cells (human prostate adenocarcinoma)
Kind of assay: Inhibition assay for mTORC1: phosphorylation of pS6K at Thr389, AlphaLISA in PC3 cells. It is filed as cell-based. The settings on record: read-out: pIC50 mTORC1 (converted). The method, then:
(§1) The IC50s of the inhibition of mTORC1 and mTORC2 were determined in vitro by determining the phosphorylation of pS6K at position Thr389 (mTORC1 inhibition) and pAkt at Ser473 (mTORC2 inhibition). In vitro studies were performed with AlphaLISA® technology using PC3 cells (Prostate Adenocarcinoma; Human (Homo sapiens)). The cells were seeded in 96 well plates and were treated for 24 hours with the different compounds. […] All analysis were performed using GraphPad Prism 7.0 (GraphPad Software, San Diego, USA).

The target in assay [2] is T2, mTORC2 (Homo sapiens, UniProt P42345+P62942).
T2 construct: endogenous in cells; host or cells: PC3 cells (human prostate adenocarcinoma)
T2 sequence (P62942 2-108 limits assumed, other chains not shown): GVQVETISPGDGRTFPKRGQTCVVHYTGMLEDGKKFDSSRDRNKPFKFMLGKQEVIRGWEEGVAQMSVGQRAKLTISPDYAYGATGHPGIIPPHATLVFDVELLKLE
The assay can be described thus: Inhibition assay for mTORC2: phosphorylation of pAkt at Ser473, AlphaLISA in PC3 cells. It is filed as cell-based. The settings on record: read-out: pIC50 mTORC2 (converted). The method, then:
as §1
(Alpha assays give light when donor and acceptor beads are brought close together.)

Molecules are shown by their SMILES.

On to `CO[C@@H]1C[C@H](C[C@@H](C)[C@@H]2CC(=O)[C@H](C)/C=C(\C)[C@@H](O)[C@@H](OC)C(=O)[C@H](C)C[C@H](C)/C=C/C=C/C=C(\C)C(OC[C@@H](O)c3ccccc3)C[C@@H]3CC[C@@H](C)[C@@](O)(O3)C(=O)C(=O)N3CCCCC3C(=O)O2)CC[C@H]1O` (some centres unmarked) [Compound 217], for which the IC50 in assay [1] was under 0.316 nM; in assay [2], 1000 to 10000 nM.

In the case of `CO[C@@H]1C[C@H](C[C@@H](C)[C@@H]2CC(=O)[C@H](C)/C=C(\C)[C@@H](O)[C@@H](OC)C(=O)[C@H](C)C[C@H](C)/C=C/C=C/C=C(\C)C(OC3COC3)C[C@@H]3CC[C@@H](C)[C@@](O)(O3)C(=O)C(=O)N3CCCCC3C(=O)O2)CC[C@H]1O` (some centres unmarked) [Compound 218], the IC50 is 0.316 to 3.16 nM in assay [1] and over 10000 nM in assay [2].

For `CO[C@@H]1C[C@H](C[C@@H](C)[C@@H]2CC(=O)[C@H](C)/C=C(\C)[C@@H](O)[C@@H](OC)C(=O)[C@H](C)C[C@H](C)/C=C/C=C/C=C(\C)C(OCCO)C[C@@H]3CC[C@@H](C)[C@@](O)(O3)C(=O)C(=O)N3CCCCC3C(=O)O2)CC[C@H]1O` (stereo partly drawn) [Compound 219, (1R,9S,12S,15R,16E,18R,19R,21R,23S,24E,26E,28E,32S,35R)-1,18-dihydroxy-30-(2-hydroxyethoxy)-12-[(1R)-2-[(1S,3R,4R)-4-hydroxy-3-methoxy-cyclohexyl]-1-methyl-ethyl]-19-methoxy-15,17,21,23,29,35-hexamethyl-11,36-dioxa-4-azatricyclo[30.3.1.0^4,9]hexatriaconta-16,24,26,28-tetraene-2,3,10,14,20-pentone], the IC50 in assay [1] is 0.316 to 3.16 nM; in assay [2], over 10000 nM.

For `COCCOC1C[C@@H]2CC[C@@H](C)[C@@](O)(O2)C(=O)C(=O)N2CCCCC2C(=O)O[C@H]([C@H](C)C[C@@H]2CC[C@@H](O)[C@H](OC)C2)CC(=O)[C@H](C)/C=C(\C)[C@@H](O)[C@@H](OC)C(=O)[C@H](C)C[C@H](C)/C=C/C=C/C=C/1C` (some centres unmarked) [Compound 220], the IC50 in assay [1] was under 0.316 nM; in assay [2] it was 1000 to 10000 nM.

As for `CO[C@@H]1C[C@H](C[C@@H](C)[C@@H]2CC(=O)[C@H](C)/C=C(\C)[C@@H](O)[C@@H](OC)C(=O)[C@H](C)C[C@H](C)/C=C/C=C/C=C(\C)C(OCCCCO)C[C@@H]3CC[C@@H](C)[C@@](O)(O3)C(=O)C(=O)N3CCCCC3C(=O)O2)CC[C@H]1O` (some centres unmarked) [Compound 221], the IC50 in assay [1] is under 0.316 nM; in assay [2], 1000 to 10000 nM.

On to `CO[C@@H]1C[C@H](C[C@@H](C)[C@@H]2CC(=O)[C@H](C)/C=C(\C)[C@@H](O)[C@@H](OC)C(=O)[C@H](C)C[C@H](C)/C=C/C=C/C=C(\C)C(OC[C@@H](C)O)C[C@@H]3CC[C@@H](C)[C@@](O)(O3)C(=O)C(=O)N3CCCCC3C(=O)O2)CC[C@H]1O` (some centres unmarked) [Compound 223], for which the IC50 was 0.316 to 3.16 nM in assay [1] and over 10000 nM in assay [2].

For the molecule `CO[C@@H]1C[C@H](C[C@@H](C)[C@@H]2CC(=O)[C@H](C)/C=C(\C)[C@@H](O)[C@@H](OC)C(=O)[C@H](C)C[C@H](C)/C=C/C=C/C=C(\C)C(OCCOCCO)C[C@@H]3CC[C@@H](C)[C@@](O)(O3)C(=O)C(=O)N3CCCCC3C(=O)O2)CC[C@H]1O` (some centres unmarked) [Compound 224], the IC50 in assay [1] is 0.316 to 3.16 nM; in assay [2], over 10000 nM.

For the molecule `COCCCOC1C[C@@H]2CC[C@@H](C)[C@@](O)(O2)C(=O)C(=O)N2CCCCC2C(=O)O[C@H]([C@H](C)C[C@@H]2CC[C@@H](O)[C@H](OC)C2)CC(=O)[C@H](C)/C=C(\C)[C@@H](O)[C@@H](OC)C(=O)[C@H](C)C[C@H](C)/C=C/C=C/C=C/1C` (some centres unmarked) [Compound 225], the IC50 was under 0.316 nM in assay [1] and 1000 to 10000 nM in assay [2].

Turning to `CO[C@@H]1C[C@H](C[C@@H](C)[C@@H]2CC(=O)[C@H](C)/C=C(\C)[C@@H](O)[C@@H](OC)C(=O)[C@H](C)C[C@H](C)/C=C/C=C/C=C(\C)C(OCC3CCOCC3)C[C@@H]3CC[C@@H](C)[C@@](O)(O3)C(=O)C(=O)N3CCCCC3C(=O)O2)CC[C@H]1O` (some centres unmarked) [Compound 226], the IC50 in assay [1] was 0.316 to 3.16 nM; in assay [2] it was over 10000 nM.

For the molecule `COCCOCCOC1C[C@@H]2CC[C@@H](C)[C@@](O)(O2)C(=O)C(=O)N2CCCCC2C(=O)O[C@H]([C@H](C)C[C@@H]2CC[C@@H](O)[C@H](OC)C2)CC(=O)[C@H](C)/C=C(\C)[C@@H](O)[C@@H](OC)C(=O)[C@H](C)C[C@H](C)/C=C/C=C/C=C/1C` (some centres unmarked) [Compound 227], the IC50 in assay [1] is under 0.316 nM; in assay [2], over 10000 nM.

On to `COC1C[C@@H]2CC[C@@H](C)[C@@](O)(O2)C(=O)C(=O)N2CCCCC2C(=O)O[C@H]([C@H](C)C[C@@H]2CC[C@@H](OCCCCN3CCOCC3)[C@H](OC)C2)CC(=O)[C@H](C)/C=C(\C)[C@@H](O)[C@@H](OC)C(=O)[C@H](C)C[C@H](C)/C=C/C=C/C=C/1C` (some centres unmarked) [Compound 300], for which the IC50 in assay [1] is under 0.316 nM; in assay [2] it was under 1000 nM.

`COCO[C@@H]1CC[C@@H](C[C@@H](C)[C@@H]2CC(=O)[C@H](C)/C=C(\C)[C@@H](O)[C@@H](OC)C(=O)[C@H](C)C[C@H](C)/C=C/C=C/C=C(\C)C(OC)C[C@@H]3CC[C@@H](C)[C@@](O)(O3)C(=O)C(=O)N3CCCCC3C(=O)O2)C[C@H]1OC` (some centres unmarked) [Compound 301]: the IC50 in assay [1] was under 0.316 nM; in assay [2], under 1000 nM.

`COC1CC2CCC(C)C(O)(O2)C(=O)C(=O)N2CCCCC2C(=O)OC(C(C)CC2CCC(O[Si](C)(C)C(C)(C)C)C(OC)C2)CC(=O)C(C)C=C(C)C(O)C(OC)C(=O)C(C)CC(C)C=CC=CC=C1C` (centres unmarked) [Compound 302]: the IC50 in assay [1] is over 3.16 nM; in assay [2], 1000 to 10000 nM.

`COC1C[C@@H]2CC[C@@H](C)[C@@](O)(O2)C(=O)C(=O)N2CCCCC2C(=O)O[C@H]([C@H](C)C[C@@H]2CC[C@@H](OCc3ccccc3)[C@H](OC)C2)CC(=O)[C@H](C)/C=C(\C)[C@@H](O)[C@@H](OC)C(=O)[C@H](C)C[C@H](C)/C=C/C=C/C=C/1C` (some centres unmarked) [Compound 305]: the values for the IC50 in assay [1] and in assay [2] were under 0.316 nM and under 1000 nM, respectively.

Turning to `COC1C[C@@H]2CC[C@@H](C)[C@@](O)(O2)C(=O)C(=O)N2CCCCC2C(=O)O[C@H]([C@H](C)C[C@@H]2CC[C@@H](OCCO)[C@H](OC)C2)CC(=O)[C@H](C)/C=C(\C)[C@@H](O)[C@@H](OC)C(=O)[C@H](C)C[C@H](C)/C=C/C=C/C=C/1C` (some centres unmarked) [Compound 306], the IC50 was under 0.316 nM in assay [1] and under 1000 nM in assay [2].

`COC1C[C@@H]2CC[C@@H](C)[C@@](O)(O2)C(=O)C(=O)N2CCCCC2C(=O)O[C@H]([C@H](C)C[C@@H]2CC[C@@H](n3ncnn3)[C@H](OC)C2)CC(=O)[C@H](C)/C=C(\C)[C@@H](O)[C@@H](OC)C(=O)[C@H](C)C[C@H](C)/C=C/C=C/C=C/1C` (some centres unmarked) [Compound 307]: the IC50 in assay [1] is under 0.316 nM; in assay [2], under 1000 nM.

Take `COCCCO[C@@H]1CC[C@@H](C[C@@H](C)[C@@H]2CC(=O)[C@H](C)/C=C(\C)[C@@H](O)[C@@H](OC)C(=O)[C@H](C)C[C@H](C)/C=C/C=C/C=C(\C)C(OC)C[C@@H]3CC[C@@H](C)[C@@](O)(O3)C(=O)C(=O)N3CCCCC3C(=O)O2)C[C@H]1OC` (stereo partly drawn) [Compound 308, (1R,9S,12S,15R,16E,18R,19R,21R,23S,24E,26E,28E,30S,32S,35R)-1,18-dihydroxy-19,30-dimethoxy-12-[(1R)-2-[(1S,3R,4R)-3-methoxy-4-(3-methoxypropoxy)cyclohexyl]-1-methyl-ethyl]-15,17,21,23,29,35-hexamethyl-11,36-dioxa-4-azatricyclo[30.3.1.0^4,9]hexatriaconta-16,24,26,28-tetraene-2,3,10,14,20-pentone]: the IC50 was under 0.316 nM in assay [1] and under 1000 nM in assay [2].

For the molecule `COC1CC2CCC(C)C(O)(O2)C(=O)C(=O)N2CCCCC2C(=O)OC(C(C)CC2CCC(OC(=O)C3(C)COC(C)(C)OC3)C(OC)C2)CC(=O)C(C)C=C(C)C(O)C(OC)C(=O)C(C)CC(C)C=CC=CC=C1C` (centres unmarked) [Compound 309], the IC50 in assay [1] is under 0.316 nM; in assay [2], under 1000 nM.

Take `COC1CC2CCC(C)C(O)(O2)C(=O)C(=O)N2CCCCC2C(=O)OC(C(C)CC2CCC(OCCCN3CCOC(C)C3)C(OC)C2)CC(=O)C(C)C=C(C)C(O)C(OC)C(=O)C(C)CC(C)C=CC=CC=C1C` (centres unmarked) [Compound 310]: the IC50 in assay [1] was under 0.316 nM; in assay [2], under 1000 nM.

For `COC1C[C@@H]2CC[C@@H](C)[C@@](O)(O2)C(=O)C(=O)N2CCCCC2C(=O)O[C@H]([C@H](C)C[C@@H]2CC[C@@H](OC(=O)NCCn3cnnn3)[C@H](OC)C2)CC(=O)[C@H](C)/C=C(\C)[C@@H](O)[C@@H](OC)C(=O)[C@H](C)C[C@H](C)/C=C/C=C/C=C/1C` (some centres unmarked) [Compound 312], the values for the IC50 in assay [1] and in assay [2] were under 0.316 nM and under 1000 nM, respectively.

As to `COC1C[C@@H]2CC[C@@H](C)[C@@](O)(O2)C(=O)C(=O)N2CCCCC2C(=O)O[C@H]([C@H](C)C[C@@H]2CC[C@@H](OC(=O)N(C)CCO)[C@H](OC)C2)CC(=O)[C@H](C)/C=C(\C)[C@@H](O)[C@@H](OC)C(=O)[C@H](C)C[C@H](C)/C=C/C=C/C=C/1C` (some centres unmarked) [Compound 313], the IC50 in assay [1] is under 0.316 nM; in assay [2], under 1000 nM.

As for `COCCO[C@@H]1CC[C@@H](C[C@@H](C)[C@@H]2CC(=O)[C@H](C)/C=C(\C)[C@@H](O)[C@@H](OC)C(=O)[C@H](C)C[C@H](C)/C=C/C=C/C=C(\C)C(OC)C[C@@H]3CC[C@@H](C)[C@@](O)(O3)C(=O)C(=O)N3CCCCC3C(=O)O2)C[C@H]1OC` (stereo partly drawn) [Compound 315, (1R,9S,12S,15R,16E,18R,19R,21R,23S,24E,26E,28E,30S,32S,35R)-1,18-dihydroxy-19,30-dimethoxy-12-[(1R)-2-[(1S,3R,4R)-3-methoxy-4-(2-methoxyethoxy)cyclohexyl]-1-methyl-ethyl]-15,17,21,23,29,35-hexamethyl-11,36-dioxa-4-azatricyclo[30.3.1.0^4,9]hexatriaconta-16,24,26,28-tetraene-2,3,10,14,20-pentone], the IC50 in assay [1] is under 0.316 nM; in assay [2], under 1000 nM.
